In general, Kd refers to the constant that tells how readily two partners part at equilibrium. The low end stands for tighter binding, the high end for weaker binding. A word on the IC50: it is the concentration at which inhibition is half-maximal. A word on the EC50: it is the concentration needed to bring the measured effect to its halfway point.

Molecules are shown by their SMILES. Like-named read-outs stand apart in the source and are kept apart here.

For experiment [1], the target named is T1, BRPF3 (Homo sapiens, UniProt Q9ULD4).
T1 sequence (Q9ULD4 589-693 limits assumed): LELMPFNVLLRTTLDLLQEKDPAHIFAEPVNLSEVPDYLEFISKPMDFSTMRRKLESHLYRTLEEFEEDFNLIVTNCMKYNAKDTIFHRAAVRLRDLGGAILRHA
Put plainly: BromoScan selectivity panel (Kd). The experiment is classed as binding.

In experiment [2] the target is FALZ (Homo sapiens, UniProt Q12830). As to the kind of experiment: BromoScan selectivity panel (Kd). The format is binding.
Experiment [3] concerns the target T2, WDR9(2) (Homo sapiens, UniProt Q9NSI6).
T2 construct: WDR9(2)
Put plainly: BromoScan selectivity panel (Kd). The format is binding.

The target of experiment [4] is T3, BRD9 (Homo sapiens, UniProt Q9H8M2).
T3 sequence (Q9H8M2 130-250 limits assumed): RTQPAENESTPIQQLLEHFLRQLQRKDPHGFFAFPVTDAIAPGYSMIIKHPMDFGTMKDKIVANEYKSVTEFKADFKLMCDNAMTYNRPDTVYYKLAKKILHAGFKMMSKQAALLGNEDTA
Put plainly: BromoScan selectivity panel (Kd). The format is binding.

In experiment [5] the target is T4, ATAD2B (Homo sapiens, UniProt Q9ULI0).
T4 sequence (Q9ULI0 953-1085 limits assumed): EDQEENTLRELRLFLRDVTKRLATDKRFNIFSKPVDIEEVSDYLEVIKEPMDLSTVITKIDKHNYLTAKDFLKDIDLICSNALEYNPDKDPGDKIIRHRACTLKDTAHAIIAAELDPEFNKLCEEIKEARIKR
As to the kind of experiment: BromoScan selectivity panel (Kd). The format is binding.

Experiment [6] concerns the target T5, BAZ2A (Homo sapiens, UniProt Q9UIF9).
T5 sequence (Q9UIF9 1796-1899 limits assumed): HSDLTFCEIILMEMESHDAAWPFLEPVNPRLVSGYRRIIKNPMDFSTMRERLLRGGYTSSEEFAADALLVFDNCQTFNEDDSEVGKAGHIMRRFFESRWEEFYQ
As to the kind of experiment: BromoScan selectivity panel (Kd). The experiment is classed as binding.

The target in experiment [7] is T6, ATAD2A (Homo sapiens, UniProt Q6PL18).
T6 sequence (Q6PL18 981-1108 limits assumed): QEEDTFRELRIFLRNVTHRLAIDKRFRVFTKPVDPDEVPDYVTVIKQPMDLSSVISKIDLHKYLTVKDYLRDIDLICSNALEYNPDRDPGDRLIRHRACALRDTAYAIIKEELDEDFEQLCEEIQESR
As to the kind of experiment: BromoScan selectivity panel (Kd). The experiment is classed as binding.

For experiment [8], the target named is T7, EP300 (Homo sapiens, UniProt Q09472).
T7 sequence (Q09472 1040-1161 limits assumed): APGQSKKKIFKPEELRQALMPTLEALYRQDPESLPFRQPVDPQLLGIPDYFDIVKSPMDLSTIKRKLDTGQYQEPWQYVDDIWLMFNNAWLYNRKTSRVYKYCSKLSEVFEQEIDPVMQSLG
Put plainly: BromoScan selectivity panel (Kd). The experiment is classed as binding.

Experiment [9] deals with T8, BRPF1 (Homo sapiens, UniProt P55201).
T8 sequence (P55201 626-740 limits assumed): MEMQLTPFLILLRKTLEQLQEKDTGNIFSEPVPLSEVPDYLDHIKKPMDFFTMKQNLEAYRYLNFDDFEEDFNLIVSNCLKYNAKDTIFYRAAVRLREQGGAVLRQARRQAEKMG
Put plainly: BromoScan selectivity panel (Kd). The format is binding.

Experiment [10] deals with T9, TRIM33(PHD Bromo.) (Homo sapiens, UniProt Q9UPN9).
T9 construct: TRIM33(PHD, Bromo.); TRIM33(PHD Bromo.); fused on or other part: The vendor panel's detection tag or display handle
T9 sequence (Q9UPN9 1-1127): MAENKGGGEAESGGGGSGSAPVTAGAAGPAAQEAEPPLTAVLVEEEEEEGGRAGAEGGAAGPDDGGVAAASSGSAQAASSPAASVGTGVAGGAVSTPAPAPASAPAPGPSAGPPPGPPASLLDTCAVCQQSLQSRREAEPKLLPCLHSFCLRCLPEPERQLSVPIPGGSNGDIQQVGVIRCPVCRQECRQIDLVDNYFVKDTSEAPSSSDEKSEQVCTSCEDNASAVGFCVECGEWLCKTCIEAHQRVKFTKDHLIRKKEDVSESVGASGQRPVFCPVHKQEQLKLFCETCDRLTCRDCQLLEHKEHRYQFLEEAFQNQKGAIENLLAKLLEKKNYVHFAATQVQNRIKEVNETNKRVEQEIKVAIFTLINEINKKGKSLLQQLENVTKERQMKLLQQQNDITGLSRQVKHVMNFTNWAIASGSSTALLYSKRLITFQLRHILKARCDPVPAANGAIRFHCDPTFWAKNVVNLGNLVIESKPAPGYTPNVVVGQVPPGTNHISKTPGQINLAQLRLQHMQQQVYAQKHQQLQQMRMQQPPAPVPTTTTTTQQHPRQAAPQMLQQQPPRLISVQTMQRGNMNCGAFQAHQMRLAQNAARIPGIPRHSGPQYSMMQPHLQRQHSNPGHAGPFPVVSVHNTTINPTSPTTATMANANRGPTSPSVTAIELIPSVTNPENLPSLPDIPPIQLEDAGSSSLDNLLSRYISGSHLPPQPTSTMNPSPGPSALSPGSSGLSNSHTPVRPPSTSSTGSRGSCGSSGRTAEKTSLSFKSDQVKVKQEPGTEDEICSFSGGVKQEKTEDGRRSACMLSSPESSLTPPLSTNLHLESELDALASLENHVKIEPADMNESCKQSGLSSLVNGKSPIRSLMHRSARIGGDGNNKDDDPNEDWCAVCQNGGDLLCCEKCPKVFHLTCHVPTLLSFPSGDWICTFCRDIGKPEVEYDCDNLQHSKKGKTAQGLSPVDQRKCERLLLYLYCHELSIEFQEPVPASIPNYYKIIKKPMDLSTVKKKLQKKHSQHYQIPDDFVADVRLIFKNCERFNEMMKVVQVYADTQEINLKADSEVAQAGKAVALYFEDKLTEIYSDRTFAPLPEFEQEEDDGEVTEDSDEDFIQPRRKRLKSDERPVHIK
As to the kind of experiment: BromoScan selectivity panel (Kd). The format is binding.

For experiment [11], the target named is CBP (Homo sapiens, UniProt Q92793). As to the kind of experiment: BromoScan selectivity panel (Kd).
Experiment [12] concerns the target T10, TRIM24(PHD Bromo.) (Homo sapiens, UniProt O15164).
T10 construct: TRIM24(PHD Bromo.)
T10 sequence (O15164 824-1006 limits assumed): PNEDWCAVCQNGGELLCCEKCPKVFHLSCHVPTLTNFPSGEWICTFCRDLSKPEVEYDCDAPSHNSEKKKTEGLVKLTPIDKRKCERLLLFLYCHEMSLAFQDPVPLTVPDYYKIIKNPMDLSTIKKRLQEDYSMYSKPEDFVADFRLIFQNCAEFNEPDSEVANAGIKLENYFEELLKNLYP
As to the kind of experiment: BromoScan selectivity panel (Kd). The experiment is classed as binding.

Experiment [13] has as its target T11, BAZ2B (Homo sapiens, UniProt Q9UIF8).
T11 sequence (Q9UIF8 2054-2168 limits assumed): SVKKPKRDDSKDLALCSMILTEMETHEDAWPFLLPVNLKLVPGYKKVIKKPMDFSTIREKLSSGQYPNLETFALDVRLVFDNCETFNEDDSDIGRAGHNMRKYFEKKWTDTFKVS
As to the kind of experiment: BromoScan selectivity panel (Kd). The experiment is classed as binding.

Experiment [14] deals with lung carcinoma cell line H2171. Put plainly: Cellular IC50 in lung carcinoma cell line H2171. The experiment is classed as cell-based. How it is done:
Cells (e.g., BRD4 dependant cells) were counted and adjusted to 60,000 cells/mL. Using a Biotek EL406, 50 μL of the cells in media were distributed into 384 well white plates from Thermo. Immediately after plating, compounds of the invention in DMSO were distributed to plates. For large plate sets, cells were returned to a 37° C. incubator while not in use. The compounds were added to plates using a 100 nL 384 well pin transfer manifold on a Janus workstation. Stocks were arrayed in 10 point quadruplicate dose response in DMSO stock in 384-well Greiner compound plates. After addition of the compounds, plates were incubated for three days in a 37° C. incubator. Cell viability was read out using ATPlite from Perkin Elmer. Plates were removed from the incubator and brought to room temperature prior to use. Lyophilized powder was resuspended in lysis buffer and diluted 1:2 with DI water. 25 μL of this solution was added to each well using the Biotek liquid handler. Plates were sealed with adherent aluminum seals prior to vortexing and spinning down at 1000 g for 1 minute. Plates were incubated for 15 minutes at room temperature before signal was read on an Envision Plate Reader.

For experiment [15], the target named is BRD4 (Homo sapiens, UniProt O60885). Put plainly: In vitro AlphaScreen protein binding assay (competition with biotinylated JQ1). (Bead proximity is the source of the signal in Alpha formats.)
Procedure: Assays were performed with minor modifications from the manufacturer's protocol (PerkinElmer, USA). All reagents were diluted in 50 mM HEPES, 150 mM NaCl, 0.1% w/v BSA, and 0.01% w/v Tween® 20 at pH 7.5 and allowed to equilibrate to room temperature prior to addition to plates. After addition of Alpha beads to master solutions, all subsequent steps were performed in low light conditions. […] After a 1000-rpm spin-down for 1 minute, 100 nL of the solutions of compounds of the invention in DMSO from stock plates were added by pin transfer using a Janus Workstation (PerkinElmer, USA). The streptavidin-coated donor beads (25 μg/ml final) were added as with previous solution in a 2×, 10 μL volume. Following this addition, the plates were sealed with foil to block light exposure and to prevent evaporation. The plates were spun down again at 1000 rpm for 1 minute. Next, the plates were incubated in the room with the plate reader (for temperature equilibration) for 1 hour prior to reading the assay. Signal is stable for up to 3 hours after donor bead addition.
In experiment [16] the test system is BRD4-dependent Nut-Midline Carcinoma line 797. Put plainly: Cell viability (ATPlite) in BRD4 dependant cell line 797. The note with it: Homo sapiens. (In ATP-based viability assays light output follows the ATP content of the culture.)
Where [17] appears, read: Table 1, in vitro, AlphaScreen, inhibiting the activity of BRD4.
The mark [18] stands for this setting: read-out: BRD4--IC50, Table 6, biochemical.

Sequence of CBP (Q92793 1081-1197 limits assumed): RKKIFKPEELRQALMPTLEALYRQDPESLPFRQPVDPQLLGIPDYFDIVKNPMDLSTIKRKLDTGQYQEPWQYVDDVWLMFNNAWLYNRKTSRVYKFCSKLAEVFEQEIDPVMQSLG
T2 sequence (Q9NSI6 1313-1418 limits assumed): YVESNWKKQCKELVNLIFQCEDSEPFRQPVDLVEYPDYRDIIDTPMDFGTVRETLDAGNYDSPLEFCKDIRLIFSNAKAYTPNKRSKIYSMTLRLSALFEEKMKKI

For the molecule `Cc1sc2c(c1C)C(c1ccc(Cl)cc1)=NC(CC(=O)OC(C)(C)C)c1nnc(C)n1-2` (centres unmarked) [JQ1, reference compound], the Kd in experiment [1], in [2], in experiment [3], in [4], in experiment [5] and in [6] was ≥ 40 µM in each case. Further, the Kd in experiment [7] was ≥ 40 µM; in experiment [8] it was 51 µM; in [9], ≥ 40 µM; in [10], ≥ 40 µM; in experiment [11] it was 24 µM; in experiment [12], ≥ 40 µM. Further, in experiment [13], the Kd is ≥ 40 µM.

In turn, `Cc1noc(C)c1-c1ccc(-c2nc3ccccn3c2NCc2ccccc2)cc1` [UMB11, N-Benzyl-2-(4-(3,5-dimethylisoxazol-4-yl)phenyl)imidazo[1,2-α]pyridin-3-amine] came in with a half-maximal inhibitory concentration (IC50) in experiment [14] (Homo sapiens, NCI-H2171, Table 2, cellular, lung carcinoma cell line H2171) of 0.76 µM. Also, the “cellular activity in H2171” value in [14] (text b616) is reported as “show cellular activity in H2171”.

Consider `Cc1noc(C)c1-c1ccc(-c2nc3cnccn3c2NC(C)(C)C)cn1` [UMB53, N-(tert-butyl)-2-(6-(3,5-dimethylisoxazol-4-yl)pyridin-3-yl)imidazo[1,2-a]pyrazin-3-amine], for which, in experiment [15] (read-out: BRD4--IC50, Table 7, biochemical), the half-maximal inhibitory concentration (IC50) turned out to be 51.9 µM. Moreover, the EC50 in experiment [16] (read-out: 797--EC50 (μM)) is > 100 µM.

Turning to `CCCCN1C(=O)c2ccccc2NC(=O)C1c1ccc(-c2c(C)noc2C)c(OC)c1` (centres unmarked) [UMB18, 2-Butyl-3-(4-(3,5-dimethylisoxazol-4-yl)-3-methoxyphenyl)-2,3-dihydro-1H-benzo[e][1,4]diazepine-1,4(5H)-dione], in experiment [15] (read-out: BRD4--IC50, Table 5, biochemical), the concentration for half-maximal inhibition (IC50) stood at 13 µM. In experiment [16] (read-out: 797--EC50 (μM)), the 50% effective concentration (EC50) is 9.91 µM.

For the molecule `COc1ccc(Nc2c(-c3ccc(-c4c(C)noc4C)cc3)nc3ccccn23)cc1` [UMB30, 2-(4-(3,5-Dimethylisoxazol-4-yl)phenyl)-N-(4-methoxyphenyl)imidazo-[1,2-α]pyridin-3-amine], the IC50 in [15] (setting [17]) and in [15] (setting [18]) was 2.76 µM throughout. In addition, the EC50 in [16] and in experiment [16] (read-out: 797--EC50 (μM)) was 7.36 µM throughout.

In turn, `Cc1noc2ccc(-c3ccc(-c4nc5ccccn5c4NCc4ccccc4)cc3)cc12` [UMB22] returned a 50% inhibitory concentration (IC50) in experiment [15] (setting [17]) of 68.3 µM. The molecule also gave a 50% effective concentration (EC50) in experiment [16] of 12.4 µM.

On to `Cc1noc(C)c1-c1ccc(-c2nc3cnccn3c2NCc2ccccc2)cc1` [UMB21, N-Benzyl-2-(4-(3,5-dimethylisoxazol-4-yl)phenyl)imidazo[1,2-α]-pyrazin-3-amine], for which the IC50 in [15] (setting [17]) and in [15] (setting [18]) was 18.8 µM throughout. Besides, the EC50 in experiment [16] and in experiment [16] (read-out: 797--EC50 (μM)) was 49.1 µM each time.

`COc1ccc(Nc2c(-c3ccc(-c4c(C)noc4C)cc3)nc3cnccn23)cc1` [UMB25, 2-(4-(3,5-Dimethylisoxazol-4-yl)phenyl)-N-(4-methoxyphenyl)imidazo[1,2-a]pyrazin-3-amine]: in experiment [15] (setting [18]), the IC50 turned out to be 7.86 µM. Also, the concentration for a half-maximal effect (EC50) in experiment [16] and in [16] (read-out: 797--EC50 (μM)) was 32.8 µM throughout.

The values above are taken from patent US9975896B2, “Inhibitors of transcription factors and uses thereof” (Dana-Farber Cancer Institute, Inc., priority 2013, dated 2018).
